Measured values as given in PubChem BioAssay AID2060508 (Molecular Pharmacology Branch, DTP, NCI, 2025).

Tested on: 454973-116-R2-J3-PDC spheroids, viability, % test/control
Assay: Anticancer human tumor 454973-116-R2-J3-PDC patient-derived pancreatic carcinoma cell line growth inhibition [GQUAD]
Details: spheroids with HUVEC and MSC; for IC50: curve of first compound; for viability, T/C: stronger effect = lower value
Procedure, shortened: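 Tumor cells were grown as complex spheroids with HUVEC endothelial cells and mesenchymal stem cells as stroma. G-quadruplex stabilizers were combined with targeted agents over half-log dilutions from near the clinical Cmax, or from 10 microM.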
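Note: spheroids exposed to compounds for seven days.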
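Throughout, for viability, T/C: 100% = DMSO vehicle control viability.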

What does the source list for `COc1cccc2c1C(=O)c1c(O)c3c(c(O)c1C2=O)CC(O)(C(=O)CO)CC3OC1CC(N)C(O)C(C)O1` (configuration not stated) + Cc1cnc(CNC(=O)c2c(=O)c3ccc(N4CCCN(C)CC4)nc3n3c2sc2ccccc23)cn1?
IC50 (second compound 0.0316 µM): 166 nM; IC50 (second compound 0.1 µM): 184 nM; IC50 (second compound 0.316 µM): 418 nM; IC50 (second compound 1 µM): 746 nM; IC50 (second compound 3.16 µM): 763 nM; IC50 (second compound 10 µM): < 31.6 nM; viability, T/C (second compound 0.0316 µM, first compound 0.0316 µM): 92.9%; viability, T/C (second compound 0.0316 µM, first compound 0.1 µM): 52.9%; viability, T/C (second compound 0.0316 µM, first compound 0.316 µM): 37.9%; viability, T/C (second compound 0.0316 µM, first compound 1 µM): 28.8%; viability, T/C (second compound 0.0316 µM, first compound 3.16 µM): 12.9%; viability, T/C (second compound 0.0316 µM, first compound 10 µM): 0.39%; viability, T/C (second compound 0.1 µM, first compound 0.0316 µM): 74.5%; viability, T/C (second compound 0.1 µM, first compound 0.1 µM): 45.4%; viability, T/C (second compound 0.1 µM, first compound 0.316 µM): 43.4%; viability, T/C (second compound 0.1 µM, first compound 1 µM): 41%; viability, T/C (second compound 0.1 µM, first compound 3.16 µM): 13.4%; viability, T/C (second compound 0.1 µM, first compound 10 µM): 0.51%; viability, T/C (second compound 0.316 µM, first compound 0.0316 µM): 66.4%; viability, T/C (second compound 0.316 µM, first compound 0.1 µM): 52.3%; viability, T/C (second compound 0.316 µM, first compound 0.316 µM): 49.3%; viability, T/C (second compound 0.316 µM, first compound 1 µM): 44%; viability, T/C (second compound 0.316 µM, first compound 3.16 µM): 12%; viability, T/C (second compound 0.316 µM, first compound 10 µM): 0.51%; viability, T/C (second compound 1 µM, first compound 0.0316 µM): 62.4%; viability, T/C (second compound 1 µM, first compound 0.1 µM): 54.9%; viability, T/C (second compound 1 µM, first compound 0.316 µM): 62.8%; viability, T/C (second compound 1 µM, first compound 1 µM): 46.2%; viability, T/C (second compound 1 µM, first compound 3.16 µM): 12.3%; viability, T/C (second compound 1 µM, first compound 10 µM): 0.26%; viability, T/C (second compound 3.16 µM, first compound 0.0316 µM): 68%; viability, T/C (second compound 3.16 µM, first compound 0.1 µM): 69.2%; viability, T/C (second compound 3.16 µM, first compound 0.316 µM): 63.3%; viability, T/C (second compound 3.16 µM, first compound 1 µM): 46%; viability, T/C (second compound 3.16 µM, first compound 3.16 µM): 11%; viability, T/C (second compound 3.16 µM, first compound 10 µM): 0.67%; viability, T/C (second compound 10 µM, first compound 0.0316 µM): 15.2%; viability, T/C (second compound 10 µM, first compound 0.1 µM): 20%; viability, T/C (second compound 10 µM, first compound 0.316 µM): 43.8%; viability, T/C (second compound 10 µM, first compound 1 µM): 27.7%; viability, T/C (second compound 10 µM, first compound 3.16 µM): 0.35%; viability, T/C (second compound 10 µM, first compound 10 µM): 0.21%
